Experimental data reported in US9205064B2, “Methods for the diagnosis of oncological disorders using epimetabolic shifters, multidimensional intracellular molecules, or environmental influencers” (Berg LLC, priority 2009, dated 2015).

Tests used:
[1] = test system: oncogenic and normal cell lines; test: Minimal CoQ10 concentration and treatment time for induction of early apoptosis (Bcl-2, caspase activation, annexin V); assay type: cell-based
Description: CoQ10 treatment of cells was carried out as described in detail below in the Materials and Methods. Induction of apoptosis was assessed in the treated cells by monitoring indicators of early apoptosis (e.g., Bcl-2 expression, caspase activation and by using annexin V assays) as described below. From these studies, the minimal CoQ10 dosage, e.g., concentration of CoQ10 and time of treatment, required to induce apoptosis in the panel of cell lines was determined.
Cells were cultured in T-75 flasks with relevant medium supplemented with 10% Fetal Bovine Serum (FBS), 1% PSA (penicillin, streptomycin, amphotericin B) (Invitrogen and Cellgro) in a 37° C. incubator with 5% CO2 levels until 70-80% confluence was reached. To harvest cells for treatment, flasks were primed with 1 mL Trypsin, aspirated, trypsinized with an additional 3 mL, and incubated at 37° C. for 3-5 minutes. Cells were then neutralized with an equal volμme of media and the subsequent solution was centrifuged at 10,000 rpm for 8 minutes. The supernatant was aspirated and the cells were resuspended with 8.5 ml of media. A mixture of 500 ul of the resuspension and 9.5 ml of […] was read twice by a coulter counter and the appropriate number of cells to be seeded into each dish was determined Control and concentration ranging from 0-200 μM groups were examined in triplicate. From a 500 μM CoQ-10 stock solution, serial dilutions were performed to achieve desired experimental concentration in appropriate dishes. Dishes were incubated in a 37° C. incubator with 5% CO2 levels for 0-72 hours depending on cell type and experimental protocol.
Following cell treatment incubation period was complete, protein isolation was performed. Dishes of all treatment groups were washed twice with 2 ml, and once with 1 ml of ice cold 1× Phosphate Buffered Saline (PBS). The PBS was aspirated from the dishes after the initial 2 washes only. Cells were gently scraped and collected into microcentrifuge tubes using the final volume from the third wash and centrifuged at 10,000 rpm for 10 minutes. After centrifugation, the supernatant was aspirated and the pellet was lysed with 50 uL of lysis buffer (1 uL of protease and phosphotase inhibitor for every 100 uL of lysis buffer). Samples were then frozen overnight at −20° C.
After the cell treatment incubation period was complete, protein isolation was performed. Flasks of all treatment groups were washed twice with 5 mL, and once with 3 mL of ice cold 1×PBS. The PBS was aspirated from the flasks after the first 2 washes only. Cells were gently scraped and collected into 15 mL centrifuge tubes using the final volume from the third wash and centrifuged for at 10,000 rpm for 10 minutes. After centrifugation, the supernatant was aspirated and the pellet was lysed with an appropriate amount of lysis buffer (1 uL of protease and phosphotase inhibitor for every 100 uL of lysis buffer). Lysis buffer volume was dependent on pellet size. Samples were transferred in microcentrifuge tubes and frozen overnight at −20° C.
Samples were thawed at […] and sonicated to ensure homogenization the day following protein isolation. Protein quantification was performed using the micro BCA protein assay kit (Pierce). To prepare samples for Immuno-blotting, a 1:19 solution of betamercaptoethanol (Sigma) to sample buffer (Bio-Rad) was prepared. Samples were diluted 1:1 with the betamercaptoethanol-sample buffer solution, boiled at 95° C. for 5 minutes, and frozen overnight at −20° C.
The volume of sample to load per well was determined using the raw mean concentration of protein obtained from the BCA protein assay. Approximately 30-60 μg of protein were loaded for each treatment time point. Proteins were run in triplicate on 12% Tris-HCl ready gels (Bio-Rad) or hand cast gels in 1× running buffer at 85 and 100 volts. Proteins were then transferred onto nitrocellulose paper for an hour at 100 volts, and blocked for another hour in a 5% milk solution. […]

[2] = test system: Pancreatic Cancer Cells (PaCa2); test: Real-time PCR Apoptosis Array; assay type: cell-based; conditions: 100 uM Q10, various times
Description: Experiments were carried out essentially as described above.

Compound: COC1=C(OC)C(=O)C(C/C=C(\C)CC/C=C(\C)CC/C=C(\C)CC/C=C(\C)CC/C=C(\C)CC/C=C(\C)CC/C=C(\C)CC/C=C(\C)CC/C=C(\C)CCC=C(C)C)=C(C)C1=O [Q10, Coenzyme Q10]
- Indication of Early apoptosis (Bcl-2, annexin V, or caspase activation) ([1]; BONE: Ewing's sarcoma (NCI)): Extremely strong
- Minimal CoQ10 Concentration for early apoptosis ([1]; BONE: Ewing's sarcoma (NCI)): 5 µM
- Minimal treatment Time for early apoptosis ([1]; BONE: Ewing's sarcoma (NCI)): 1 h
- Indication of Early apoptosis (Bcl-2, annexin V, or caspase activation) ([1]; BONE: Osteosarcoma (143b)): Very Strong
- Minimal CoQ10 Concentration for early apoptosis ([1]; BONE: Osteosarcoma (143b)): 50 µM
- Minimal treatment Time for early apoptosis ([1]; BONE: Osteosarcoma (143b)): 48 h
- Indication of Early apoptosis (Bcl-2, annexin V, or caspase activation) ([1]; BREAST: BT-20): Strong
- Minimal CoQ10 Concentration for early apoptosis ([1]; BREAST: BT-20): 100 µM
- Minimal treatment Time for early apoptosis ([1]; BREAST: BT-20): 48 h
- Indication of Early apoptosis (Bcl-2, annexin V, or caspase activation) ([1]; BREAST: MCF-7): Strong
- Minimal CoQ10 Concentration for early apoptosis ([1]; BREAST: MCF-7): 50 µM
- Minimal treatment Time for early apoptosis ([1]; BREAST: MCF-7): 48 h
- Indication of Early apoptosis (Bcl-2, annexin V, or caspase activation) ([1]; BREAST: MDA MB 468): Strong
- Minimal CoQ10 Concentration for early apoptosis ([1]; BREAST: MDA MB 468): 100 µM
- Minimal treatment Time for early apoptosis ([1]; BREAST: MDA MB 468): 48 h
- Indication of Early apoptosis (Bcl-2, annexin V, or caspase activation) ([1]; BREAST: SkBr-3): Very Strong
- Minimal CoQ10 Concentration for early apoptosis ([1]; BREAST: SkBr-3): 50 µM
- Minimal treatment Time for early apoptosis ([1]; BREAST: SkBr-3): 24 h
- Indication of Early apoptosis (Bcl-2, annexin V, or caspase activation) ([1]; BREAST: ZR-75): Slight
- Minimal CoQ10 Concentration for early apoptosis ([1]; BREAST: ZR-75): 200 µM
- Minimal treatment Time for early apoptosis ([1]; BREAST: ZR-75): 72 h
- Indication of Early apoptosis (Bcl-2, annexin V, or caspase activation) ([1]; Fibroblasts (nFib)): None
- Indication of Early apoptosis (Bcl-2, annexin V, or caspase activation) ([1]; Heart: Aortic smooth muscle (HASMC)): None
- Indication of Early apoptosis (Bcl-2, annexin V, or caspase activation) ([1]; Keratinocytes (Heka, Hekn)): None
- Indication of Early apoptosis (Bcl-2, annexin V, or caspase activation) ([1]; LIVER: Hep3B): Very Strong
- Minimal CoQ10 Concentration for early apoptosis ([1]; LIVER: Hep3B): 50 µM
- Minimal treatment Time for early apoptosis ([1]; LIVER: Hep3B): 24 h
- Indication of Early apoptosis (Bcl-2, annexin V, or caspase activation) ([1]; LIVER: HepG2): Very Strong
- Minimal CoQ10 Concentration for early apoptosis ([1]; LIVER: HepG2): 50 µM
- Minimal treatment Time for early apoptosis ([1]; LIVER: HepG2): 24 h
- Indication of Early apoptosis (Bcl-2, annexin V, or caspase activation) ([1]; Mammary fiboblasts: 184A1 and 184B5): None
- Indication of Early apoptosis (Bcl-2, annexin V, or caspase activation) ([1]; Melanocytes (Hema, LP)): None
- Indication of Early apoptosis (Bcl-2, annexin V, or caspase activation) ([1]; Melanoma (Skmel 2)): Very Strong
- Minimal CoQ10 Concentration for early apoptosis ([1]; Melanoma (Skmel 2)): 25 µM
- Minimal treatment Time for early apoptosis ([1]; Melanoma (Skmel 2)): 24 h
- Indication of Early apoptosis (Bcl-2, annexin V, or caspase activation) ([1]; Melanoma (Skmel 28)): Strong
- Minimal CoQ10 Concentration for early apoptosis ([1]; Melanoma (Skmel 28)): 20 µM
- Minimal treatment Time for early apoptosis ([1]; Melanoma (Skmel 28)): 24 h
- Indication of Early apoptosis (Bcl-2, annexin V, or caspase activation) ([1]; PANCREAS: PaCa2): Very Strong
- Minimal CoQ10 Concentration for early apoptosis ([1]; PANCREAS: PaCa2): 25 µM
- Minimal treatment Time for early apoptosis ([1]; PANCREAS: PaCa2): 24 h
- Indication of Early apoptosis (Bcl-2, annexin V, or caspase activation) ([1]; PROSTATE: PC3): Very Strong
- Minimal CoQ10 Concentration for early apoptosis ([1]; PROSTATE: PC3): 25 µM
- Minimal treatment Time for early apoptosis ([1]; PROSTATE: PC3): 24 h
- Indication of Early apoptosis (Bcl-2, annexin V, or caspase activation) ([1]; SCC, Squamous cell carcinoma): Very Strong
- Minimal CoQ10 Concentration for early apoptosis ([1]; SCC, Squamous cell carcinoma): 25 µM
- Minimal treatment Time for early apoptosis ([1]; SCC, Squamous cell carcinoma): 24 h
- effect on normal cells, including keratinocytes and dermal fibroblasts ([1]; normal tissue environment): increased proliferation and migration
- efficacy of treatment (induction of apoptosis) across cell types ([1]; panel of oncogenic and normal cell lines): greater in cell types that exhibited increased oncogenicity and/or greater metastatic potential
- mRNA of ABL1, AKT1, Bcl2L1, BclAF1, CASP1, CASP2, CASP6, CIDEA, FADD, LTA, TNF, TNFSF10A and TNFSF10 [2]: modulated
